According to paper PMC8286840, “Identifying SARS-CoV-2 antiviral compounds by screening for small molecule inhibitors of Nsp3 papain-like protease” (Biochemical Journal, 2021):
Counter-ions that a name gives are not always drawn. Like-named read-outs stand apart in the source and are kept apart here.

Experiments:
[1] = biological target: T1, SARS-CoV-2 PLpro (nsp3 1564–1878) (Severe acute respiratory syndrome coronavirus 2, UniProt P0DTD1); assay: biochemical; design: FRET-quenched peptide (Pro3) cleavage by PLpro, 10 min pre-incubation, slope over 20 min, normalised to no-compound control; settings: high concentration screen, read-out: % of control remaining
[2] = biological target: T1, SARS-CoV-2 PLpro (nsp3 1564–1878); assay: biochemical; design: FRET-quenched peptide (Pro3) cleavage by PLpro, 10 min pre-incubation, slope over 20 min, normalised to no-compound control; settings: low concentration screen, read-out: % of control remaining

NS(=O)(=O)c1cc2c(cc1Cl)NC(C(Cl)Cl)NS2(=O)=O (stereo not drawn) [Trichloromethiazide]
remaining activity at 3.75 µM ([1]; Well no.=2072): 100% | remaining activity at 1.25 µM ([2]; Well no.=2072): 101%

Cc1cc(Cc2cc(C)cc(C(C)(C)C)c2O)c(O)c(C(C)(C)C)c1 [GERI-BP002-A]
remaining activity at 3.75 µM ([1]; Well no.=3701): 101% | remaining activity at 1.25 µM ([2]; Well no.=3701): 97.3%

O=C(Nc1cc(C(F)(F)F)cc(C(F)(F)F)c1)c1cc(Cl)ccc1O [IMD 0354 - N-[3,5-Bis(trifluoromethyl)phenyl]-5-chloro-2-hydroxybenzamide]
remaining activity at 3.75 µM ([1]; Well no.=2586): 82.3% | remaining activity at 1.25 µM ([2]; Well no.=2586): 86.3%

CC[C@@H](C)[C@@H](O)[C@H](C)C(=O)[C@H](C)/C=C(\C)C[C@H](C)[C@@H]1OC(=O)[C@H]1CC [Ebelactone B]
remaining activity at 3.75 µM ([1]; Well no.=3269): 104% | remaining activity at 1.25 µM ([2]; Well no.=3269): 103%

N[C@@H](Cc1ccc(O)c(Cl)c1)C(=O)O [3-Chloro-L-tyrosine]
remaining activity at 3.75 µM ([1]; Well no.=7491): 101% | remaining activity at 1.25 µM ([2]; Well no.=7491): 101%

O=c1cc[nH]c(=O)[nH]1 [Uracil]
remaining activity at 3.75 µM ([1]; Well no.=7023): 102% | remaining activity at 1.25 µM ([2]; Well no.=7023): 103%

CC(=O)N[C@H]1[C@H]([C@H](O)[C@H](O)CO)OC(O)(C(=O)O)C[C@@H]1O (stereo partly drawn) [N-Acetylneuraminic acid]
remaining activity at 3.75 µM ([1]; Well no.=6491): 94.5% | remaining activity at 1.25 µM ([2]; Well no.=6491): 92.4%

C[N+]1(C)[C@@H]2C[C@@H](OC(=O)[C@H](CO)c3ccccc3)C[C@H]1[C@@H]1O[C@@H]12 [Methscopolamine (bromide)]
remaining activity at 3.75 µM ([1]; Well no.=8297): 96.8% | remaining activity at 1.25 µM ([2]; Well no.=8297): 97.7%

C#C[C@]1(O)CC[C@H]2[C@@H]3CCC4=CC(=O)CC[C@@H]4[C@H]3CC[C@@]21CC [Levonorgestrel]
remaining activity at 3.75 µM ([1]; Well no.=2262): 102% | remaining activity at 1.25 µM ([2]; Well no.=2262): 93.9%

CC[C@@H]([C@H](C)O)n1ncn(-c2ccc(N3CCN(c4ccc(OC[C@@H]5CO[C@@](Cn6cncn6)(c6ccc(F)cc6F)C5)cc4)CC3)cc2)c1=O [Posaconazole]
remaining activity at 3.75 µM ([1]; Well no.=4763): 92.9% | remaining activity at 1.25 µM ([2]; Well no.=4763): 93.6%

CCOC(=O)[C@H](CCc1ccccc1)N[C@@H](C)C(=O)N1CCC[C@H]1C(=O)O [(2Z)-2-butenedioic acid compound with (2S)-1-((2S)-2-{[(1S)-1-(ethoxycarbonyl)-3-phenylpropyl]amino}propanoyl)-2-pyrrolidinecarboxylic acid (1:1)]
remaining activity at 3.75 µM ([1]; Well no.=5659): 101% | remaining activity at 1.25 µM ([2]; Well no.=5659): 102%

NCCCCNS(=O)(=O)c1ccc2c(Cl)cccc2c1 [N-(4-Aminobutyl)-5-chloro-2-naphthalenesulfonamide hydrochloride]
remaining activity at 3.75 µM ([1]; Well no.=55): 106% | remaining activity at 1.25 µM ([2]; Well no.=55): 104%

OC[C@H]1O[C@@H](n2cnc3c(NCCc4ccccc4)ncnc32)[C@H](O)[C@@H]1O [N6-(2-Phenylethyl)adenosine]
remaining activity at 3.75 µM ([1]; Well no.=8431): 96.2% | remaining activity at 1.25 µM ([2]; Well no.=8431): 96.1%

O=C(/C=C/c1ccc(O)c(O)c1)c1ccc(O[C@@H]2O[C@H](CO)[C@@H](O)[C@H](O)[C@H]2O)c(O)c1O [Marein]
remaining activity at 3.75 µM ([1]; Well no.=3731): 95.9% | remaining activity at 1.25 µM ([2]; Well no.=3731): 91.7%

CCc1ccc(CCOc2ccc(CC3SC(=O)NC3=O)cc2)nc1 (stereo not drawn) [Pioglitazone]
remaining activity at 3.75 µM ([1]; Well no.=1718): 98% | remaining activity at 1.25 µM ([2]; Well no.=1718): 98.7%

O=C(NC(NC(=S)Nc1ccc(F)c([N+](=O)[O-])c1)C(Cl)(Cl)Cl)C(c1ccccc1)c1ccccc1 (stereo not drawn) [ATM/ATR Kinase Inhibitor]
remaining activity at 3.75 µM ([1]; Well no.=2312): 98.3% | remaining activity at 1.25 µM ([2]; Well no.=2312): 98.2%

CCOC(=O)C1=Cc2ccc(C(F)(F)C(F)(F)F)cc2N=C(N)C1 [Toll-like receptor modulator]
remaining activity at 3.75 µM ([1]; Well no.=8077): 95.6% | remaining activity at 1.25 µM ([2]; Well no.=8077): 108%

CCN(CC)Cc1ccc(C(=O)N(CCc2ccccc2OC)[C@@H]2CCNC2)cc1 [4-[(diethylamino)methyl]-N-[2-(2-methoxyphenyl)ethyl]-N-[(3R)-3-pyrrolidinyl]benzamide dihydrochloride]
remaining activity at 3.75 µM ([1]; Well no.=5467): 109% | remaining activity at 1.25 µM ([2]; Well no.=5467): 107%

CCC[C@@H]1C[C@@H](C(=O)N[C@@H]([C@H]2O[C@H](SC)[C@H](O)[C@@H](O)[C@H]2O)[C@@H](C)O)N(C)C1 [Lincomycin]
remaining activity at 3.75 µM ([1]; Well no.=1549): 105% | remaining activity at 3.75 µM ([1]; Well no.=3377): 96.8% | remaining activity at 1.25 µM ([2]; Well no.=1549): 102% | remaining activity at 1.25 µM ([2]; Well no.=3377): 96.3%

CC1=NN(c2ccccc2)C(=O)C1 [MCI-186]
remaining activity at 3.75 µM ([1]; Well no.=3901): 103% | remaining activity at 1.25 µM ([2]; Well no.=3901): 103%

Cc1cc2c(F)c(Oc3ncnn4cc(OC[C@@H](C)OC(=O)[C@H](C)N)c(C)c34)ccc2[nH]1 [Brivanib alaninate (BMS-582664)]
remaining activity at 3.75 µM ([1]; Well no.=5049): 104% | remaining activity at 1.25 µM ([2]; Well no.=5049): 102%

CCCCC1CCC(c2nc(-c3ccncc3)no2)CC1 (stereo not drawn) [PSN-375963]
remaining activity at 3.75 µM ([1]; Well no.=5398): 106% | remaining activity at 1.25 µM ([2]; Well no.=5398): 106%

C[N+]1(C)C2CCC1CC(OC(=O)c1c[nH]c3ccccc13)C2 (stereo not drawn) [3-Tropanylindole-3-carboxylate methiodide]
remaining activity at 3.75 µM ([1]; Well no.=1520): 90.6% | remaining activity at 1.25 µM ([2]; Well no.=1520): 91.9%

CN1[C@@H]2CC(=O)C[C@H]1[C@H](O)C2 [6-Hydroxytropinone]
remaining activity at 3.75 µM ([1]; Well no.=3639): 104% | remaining activity at 1.25 µM ([2]; Well no.=3639): 99.8%

Cc1ccc(Sc2ccccc2N2CCNCC2)c(C)c1 [Vortioxetine (hydrobromide)]
remaining activity at 3.75 µM ([1]; Well no.=7384): 98.7% | remaining activity at 1.25 µM ([2]; Well no.=7384): 98.6%

CCCN1CCC[C@@H](c2cccc(C#N)c2)C1 [S(-)-DS 121 hydrochloride]
remaining activity at 3.75 µM ([1]; Well no.=596): 101% | remaining activity at 1.25 µM ([2]; Well no.=596): 100%

Nc1nc(SCc2ccc([N+](=O)[O-])cc2)c2ncn([C@@H]3O[C@H](CO)[C@@H](O)[C@H]3O)c2n1 [S-(4-Nitrobenzyl)-6-thioguanosine]
remaining activity at 3.75 µM ([1]; Well no.=53): 102% | remaining activity at 1.25 µM ([2]; Well no.=53): 101%

CCOc1cc2ncc(C#N)c(Nc3ccc(F)c(Cl)c3)c2cc1NC(=O)/C=C/CN(C)C [(2E)-N-[4-(3-chloro-4-fluoroanilino)-3-cyano-7-ethoxy-6-quinolinyl]-4-(dimethylamino)-2-butenamide]
remaining activity at 3.75 µM ([1]; Well no.=5707): 102% | remaining activity at 1.25 µM ([2]; Well no.=5707): 101%

CN[C@@H]1[C@H](O[C@H]2[C@H](O[C@H]3[C@H](O)[C@@H](O)[C@H](N=C(N)N)[C@@H](O)[C@@H]3N=C(N)N)O[C@@H](C)[C@]2(O)C=O)O[C@@H](CO)[C@H](O)[C@H]1O [Streptomycin]
remaining activity at 3.75 µM ([1]; Well no.=2285): 97.7% | remaining activity at 1.25 µM ([2]; Well no.=2285): 97.7%

O=C(O)C1=CCCNC1 [Guvacine hydrochloride]
remaining activity at 3.75 µM ([1]; Well no.=460): 99.6% | remaining activity at 1.25 µM ([2]; Well no.=460): 99.2%

O=C1CSC(c2cccc(Br)c2)N1c1cc(Cl)ccc1O (stereo not drawn) [CK-548]
remaining activity at 3.75 µM ([1]; Well no.=6054): 96.3% | remaining activity at 1.25 µM ([2]; Well no.=6054): 97.5%

COc1ccc(C(=O)/C=C/c2cc(OC)c(OC)c(OC)c2)cc1OC [MD2-IN-1]
remaining activity at 3.75 µM ([1]; Well no.=8739): 95.8% | remaining activity at 1.25 µM ([2]; Well no.=8739): 100%
